Here are results for two compounds from US9358244B2, “Solid dosage forms of oleyl phosphocholine” (Oblita Therapeutics BVBA, priority 2010, dated 2016).

In brackets after ≈: the same amount, converted by molar mass.

The subject of data set [1] is Leishmania infantum (MHOM/MA (BE)/67) amastigotes. The experiment in a line: Curative efficacy against Leishmania infantum in the hamster model, oral 5 days. It counts as in vivo. As to conditions: for Bone marrow % red / Liver % red / Spleen % red: reduction vs VIC; for Bone marrow Mean ± SE of amastigotes per nucleus / Liver Mean ± SE of LDU / Spleen Mean ± SE of LDU: 10 days after last treatment. On the procedure:
Golden hamsters (female, 75 g) were allocated randomly to 7 groups with 8 animals per group. • G1: vehicle infected control (VIC): 200 μl blank vehicle orally 5 days • G2: MIL-PBS: 5×40 mg/kg (=98.1 μmol/kg) orally for 5 days • G3: MIL-PBS: 5×20 mg/kg (=49.1 μmol/kg) orally for 5 days • G4: OlPC-PBS: 5×42.5 mg/kg (=98.1 μmol/kg) orally for 5 days • G5: OlPC-PBS: 5×21.2 mg/kg (=49.1 μmol/kg) orally for 5 days • G6: OlPC-liposomes: 5×2.4 ml/kg (=98.1 μmol/kg) orally for 5 days • G7: OlPC-liposomes: 5×1.2 ml/kg (=49.1 μmol/kg) orally for 5 days Drinking water and food were available ad libitum throughout the experiment. […] Artificial Infection
Leishmania infantum (MHOM/MA (BE)/67) amastigotes were obtained from the spleen of heavily infected donor hamsters. The total parasite burden was determined on Giemsa-stained smears. Amastigotes in the spleen homogenate were concentrated using two centrifugation steps (low speed (300 rpm) with collection of the supernatant−high speed (4200 rpm) with collection of the pellet). The parasite burdens in the spleen were estimated using the Stauber technique and the amastigote suspension was diluted to prepare the infection inocula for intracardial infection containing 2×10^7 amastigotes/100 μl. At 21 days post infection (=start of treatment), the levels infection were checked in 4 randomly chosen animals by making a smear from a liver biopsy for determination of the parasite burden (cfr. infra).
• Miltefosine was formulated at 20 mg/ml and 10 mg/ml in PBS and stored at room temperature in the dark. A clear transparent solution was obtained. • OlPC-PBS was formulated at 21.25 mg/ml and 10.63 mg/ml in PBS and stored at room temperature in the dark. A clear transparent solution was obtained. • OlPC-liposome formulation was prepared at 18 mg/ml (dosed at 2.4 ml/kg=120 μl/50 gram). The formulation was diluted 2 times in PBS to obtain a OlPC-formulation of 9 mg/ml (dosed at 1.2 ml/kg=[…])) Treatment
Oral treatment started 21 days after infection (dpi) and was continued for 5 consecutive days. Dosing volume was 100 μl per 50 gram BW (bodyweight).
Parasite Burden: amastigote burdens in the different target organs (liver, spleen, bone-marrow) were determined 10 days after the last treatment (i.e. day 35 of the experiment). The organs of individual animals were weighed (except bone-marrow); impression smears were fixed in methanol and stained with Giemsa for microscopic evaluation of the number of amastigotes per cell by counting a minimum of 500 nuclei1. The results are expressed as Leishman Donovan Units (LDU)=mean number of amastigotes per nucleus×mg organ weight. Percentage reduction as compared to vehicle-treated infected control animals (VIC) is used as a measure for drug activity. Particularly for spleen and bone-marrow, the viability of possible residual burdens was assessed using the promastigote transformation assay.

For data set [2], the system named is L. infantum. The experiment in a line: Treatment of dogs naturally infected with L. infantum, clinical score. It counts as in vivo. The following applies: 4 mg/kg/day orally 14 days. As for the experimental part:
(§1) The dose of 4 mg/kg/day oleylphosphocholine was used to treat orally during 14 days a cohort of 6 dogs from a shelter naturally infected with L. infantum and classified as clinically sick. The dogs were assessed at the clinical (physical examination and clinic-pathological abnormalities) and parasitological levels at the beginning of the treatment (day 0) and on day 15, 30 and 90.

Data set [3] is described as follows: Thermogravimetric analysis (TGA) of OlPC. As to conditions: with 1% of mass loss, heating rate 10° C./min. It is filed as physicochemical. On the procedure:
Thermogravimetric Analysis (TGA) measures weight changes in a material as a function of temperature (or time) under a controlled atmosphere. Its principal use includes measurement of a material's thermal stability and composition. The TGA analysis was performed using a HR TGA 2950 (TA Instruments, Leatherhead, UK). Samples (±15 mg) were equilibrated at 50° C. and then heated to 500° C. at a heating rate of 10° C./min and the percentage of weight loss was recorded. The OlPC compound show thermal degradation at 159.27° C. with 1% of mass loss.

Data set [4] can be described thus: Tolerance in treated naturally infected dogs. It counts as in vivo. The following applies: 6 dogs, 4 mg/kg/day orally 14 days. On the procedure: as §1
Data set [5] is described as follows: Tolerability in hamsters, follow up experiment. It is filed as in vivo. As to conditions: hamster, oral, single administrations as high as 100 mg/kg. As for the experimental part:
(§2) In a follow up experiment, the same experimental protocol was used to compare the efficacy of oral oleyl phosphocholine (OlPC) at total doses of 25, 50 and 100 mg/kg when given as single or multiple oral administrations (5×5, 10 and 20 mg/kg, respectively).
(§3) Female hamsters (n=60) were intracardially infected with 2×10^7 Leishmania infantum (MHOM/MA (BE)/67) amastigotes on day 0. Treatment started at day+21 post infection for 5 consecutive days once daily with a total dose of […] given as single or multiple oral administrations. Amastigote burdens in the different target organs (liver, spleen, bone-marrow) were determined 10 days after the last treatment (day+35). The organs of individual animals were weighed (except bone-marrow); impression smears were fixed in methanol and stained with Giemsa for microscopic evaluation of the number of amastigotes per cell by counting a minimum of 500 nuclei. The results (FIG. 4) are expressed as Leishman Donovan Units (LDU)=mean number of amastigotes per nucleus×mg organ weight.

Data set [6] can be described thus: Compatibility of OlPC with binder in solution. It is filed as physicochemical. The source says: The tablets produced presented high levels of friability and high disintegration time. It was observed that the presence of polyvynilpyrrolidone in solution with OlPC induces the formation of an unknown precipitated which indicates the presence of an incompatibility between the two compounds.
Hydroxypropylmethylcellulose was then selected to replace polyvynilpyrrolidone as a binder in the subsequent formulation assays.

A short description of data set [7]: Water solubility of OlPC. It counts as physicochemical. As for the experimental part: The wet granulation process for OlPC solid dosage formulation requires that OlPC is solubilised in water. OlPC as a water solubility of 0.2 g/ml, which implies that for each tablet with 50 mg of OlPC at least 250 μl of water per tablet has to be incorporated in the dry powder mixture.

Data set [8] is described as follows: Dynamic vapor sorption, OlPC hygroscopicity. It is filed as physicochemical. The following applies: 25° C. As for the experimental part:
Active pharmaceutical ingredients (API) frequently show a propensity to interact with water molecules, leading to absorption of moisture in their bulk structure or adsorption on their surfaces. Such behaviour can critically affect many pharmaceutical properties such as purity, solubility and chemical stability, density, surface area, powder flow, compact ability and crystal form. […] Dynamic vapor sorption (DVS) analyzes determine hygroscopicity profiles using a very small sample (≈15 mg), and provide both qualitative and quantitative information on water uptake.
Water sorption/desorption isotherm of OlPC was determined gravimetrically at 25° C. (SD, 0.1° C.) using a DVS Advantage 1 with a Cahn D200 microbalance (Surface Measurement Systems, London, UK). Between 10 and 20 mg was weighed in the sample cup of the instrument, subjected to a drying step in order to bring the sample to a constant weight and subsequently exposed to increasing relative humidity (RH) (using 10% increments up to 90%). Following the sorption phase, the sample was exposed to a decreasing RH (in steps of 10% until 0% RH). Each step continued until equilibrium was reached (i.e. when the change in mass smaller than 0.002% per minute during at least 10 min) or until 6 h had passed. The mass change was recorded every minute with a resolution of ±0.1 μg.

The test system of data set [9] is Leishmania infantum (MHOM/MA (BE)/67) amastigotes. In words: Follow up experiment: single versus multiple oral administrations in L. infantum infected hamsters. It is filed as in vivo. As to conditions: hamster, total doses 25, 50 and 100 mg/kg oral, liver, spleen, bone marrow. As for the experimental part:
as §2, §3

Setting [10] is: 49.1 μmol/kg (20 mg/kg) orally for 5 days.
Where [11] appears, read: 98.1 μmol/kg (40 mg/kg) orally for 5 days.

For `CCCCCCCCCCCCCCCCOP(=O)([O-])OCC[N+](C)(C)C` [Miltefosine], in data set [1] (setting [10]), the “Bone marrow % red” value was 39%, the Liver % red stood at 0% and the Spleen % red came to 61%. In addition, the Liver % red result in data set [1] (49.1 μmol/kg (20 mg/kg) orally for 5 days, listed as MIL) is “no reduction”. In [1] (49.1 μmol/kg orally for 5 days), the “Bone marrow Mean ± SE of amastigotes per nucleus” value was determined as 1.0 ± 0.34 amastigotes per nucleus, the “Liver Mean ± SE of LDU” value came out at 9017 ± 1489 LDU and the “Spleen Mean ± SE of LDU” value is 188 ± 44 LDU. For the same compound, in data set [1] (setting [11]), the “Bone marrow % red” value was 95%, the Liver % red is 65% and the Spleen % red was 99.2%. In addition, the Spleen % red in data set [1] (98.1 μmol/kg (40 mg/kg) orally for 5 days, listed as MIL) worked out at 99%. Further, in data set [1] (98.1 μmol/kg orally for 5 days), the “Bone marrow Mean ± SE of amastigotes per nucleus” value is 0.1 ± 0.014 amastigotes per nucleus, the “Liver Mean ± SE of LDU” value stood at 2764 ± 847 LDU and the “Spleen Mean ± SE of LDU” value was 3.7 ± 1.67 LDU.

Turning to `CCCCCCCC/C=C\CCCCCCCCOP(=O)([O-])OCC[N+](C)(C)C` [OlPC, oleyl phosphocholine], the “average clinical score (CS)” value in data set [2] (day 15 (day 0: 19, range 14-31)) was 12 (range 7-16); in [2] (day 30 (day 0: 19, range 14-31)), 5 (range 1-10); in data set [2] (day 90 (range 0-5; day 0: 19)), 2. This compound also showed a thermal degradation temperature in [3] of 159.27 °C. In addition, the “tolerance, side effects” value in data set [4] was “two of the six dogs treated experienced diarrhea during the first week post-treatment, and a third one had diarrhea and 1 episode of vomiting”. In addition, the “tolerability / signs of toxicity” value in data set [5] is reported as “well tolerated”. Also, the compatibility with hydroxypropylmethylcellulose entry in data set [6] is reported as “no such incompatibility was observed”. The “compatibility with polyvinylpyrrolidone in solution” value in data set [6] (unknown precipitate formed) is reported as “incompatibility”. Further, the water solubility in [7] was determined as 200 mg/mL (≈ 461 mM). Also, the water absorbed in [8] (exposed to 90% RH) amounted to 41.67%. Moreover, the hygroscopicity entry in data set [8] (water sorption and desorption profiles) is “very hygroscopic”. The “overall parasite suppression levels, single versus multiple administrations” value in data set [9] is listed as “similar”.
